Experiments:
[1] = Plasma Stability Assay (human plasma); assay type: in vitro ADME; conditions: both sexes; pooled human plasma, heparin, final conc. 2 μM, 37° C., 0-120 min; read-out: Human Plasma Stability t1/2
In short: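 Compound at 2 μM final in pooled heparinised plasma (3 male, 3 female), incubated at 37° C with sampling at 0, 10, 30, 60 and 120 min. Acetonitrile stop, LC-MS/MS; % remaining from analyte/internal-standard peak area ratio relative to T0.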

[2] = Whole Blood Stability Assay (mouse whole blood); assay type: in vitro ADME; conditions: CD-1 mouse blood, EDTA-K2, final conc. 2 μM, 37° C., 0-120 min; for half-life at 2 μM: male, fresh whole blood, read-out: Mouse Whole Blood Stability t1/2
In short: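 Compound at 2 μM final was incubated at 37 °C in fresh EDTA-K2 blood from male CD-1 mice. Samples at 0, 10, 30, 60 and 120 min were protein-precipitated with acetonitrile and analysed by LC-MS/MS. % remaining was derived from analyte/internal-standard peak area ratios.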

half-life at 2 μM [1]	Mouse Whole Blood Stability t1/2 [2]	Compound	half-life at 2 μM [2]
> 289 min	1 min	CCc1c(F)ccc2cc(OC(=O)C(C)(C)C)cc(N3CCc4c(nc(OC[C@@]56CCCN5C[C@H](F)C6)nc4N4CCC[C@]5(C4)NC(=O)NC5=O)C3)c12 [Example 39, 4-(4-((R)-2,4-dioxo-1,3,7-triazaspiro[4.5]decan-7-yl)-2-(((2R,7aS)-2-fluorotetrahydro-1H-pyrrolizin-7a(5H)-yl)methoxy)-5,8-dihydropyrido[3,4-d]pyrimidin-7(6H)-yl)-5-ethyl-6-fluoronaphthalen-2-yl pivalate]	–
95 min	–	CCc1c(F)ccc2cc(OC(=O)OC(C)C)cc(N3CCc4c(nc(OC[C@@]56CCCN5C[C@H](F)C6)nc4N4CCC[C@]5(C4)NC(=O)NC5=O)C3)c12 [Example 40, 4-(4-((R)-2,4-dioxo-1,3,7-triazaspiro[4.5]decan-7-yl)-2-(((2R,7aS)-2-fluorotetrahydro-1H-pyrrolizin-7a(5H)-yl)methoxy)-5,8-dihydropyrido[3,4-d]pyrimidin-7(6H)-yl)-5-ethyl-6-fluoronaphthalen-2-yl isopropyl carbonate]	2 min
142 min	1 min	CCCCCC(=O)Oc1cc(N2CCc3c(nc(OC[C@@]45CCCN4C[C@H](F)C5)nc3N3CCC[C@]4(C3)NC(=O)NC4=O)C2)c2c(CC)c(F)ccc2c1 [Example 44, 4-(4-((R)-2,4-dioxo-1,3,7-triazaspiro[4.5]decan-7-yl)-2-(((2R,7aS)-2-fluorotetrahydro-1H-pyrrolizin-7a(5H)-yl)methoxy)-5,8-dihydropyrido[3,4-d]pyrimidin-7(6H)-yl)-5-ethyl-6-fluoronaphthalen-2-yl hexanoate]	–
116 min	–	CCc1c(F)ccc2cc(OC(=O)OC(C)(C)C)cc(N3CCc4c(nc(OC[C@@]56CCCN5C[C@H](F)C6)nc4N4CCC[C@]5(C4)NC(=O)NC5=O)C3)c12 [Example 46, tert-butyl (4-(4-((R)-2,4-dioxo-1,3,7-triazaspiro[4.5]decan-7-yl)-2-(((2R,7aS)-2-fluorotetrahydro-1H-pyrrolizin-7a(5H)-yl)methoxy)-5,8-dihydropyrido[3,4-d]pyrimidin-7(6H)-yl)-5-ethyl-6-fluoronaphthalen-2-yl) carbonate]	13 min
235 min	–	CCCCCCCC(=O)Oc1cc(N2CCc3c(nc(OC[C@@]45CCCN4C[C@H](F)C5)nc3N3CCC[C@]4(C3)NC(=O)NC4=O)C2)c2c(CC)c(F)ccc2c1 [Example 50, 4-(4-((R)-2,4-dioxo-1,3,7-triazaspiro[4.5]decan-7-yl)-2-(((2R,7aS)-2-fluorotetrahydro-1H-pyrrolizin-7a(5H)-yl)methoxy)-5,8-dihydropyrido[3,4-d]pyrimidin-7(6H)-yl)-5-ethyl-6-fluoronaphthalen-2-yl octanoate]	13 min
> 289 min	–	CCc1c(F)ccc2cc(OCOC(=O)N(C)C)cc(N3CCc4c(nc(OC[C@@]56CCCN5C[C@H](F)C6)nc4N4CCC[C@]5(C4)NC(=O)NC5=O)C3)c12 [Example 52, ((4-(4-((R)-2,4-dioxo-1,3,7-triazaspiro[4.5]decan-7-yl)-2-(((2R,7aS)-2-fluorotetrahydro-1H-pyrrolizin-7a(5H)-yl)methoxy)-5,8-dihydropyrido[3,4-d]pyrimidin-7(6H)-yl)-5-ethyl-6-fluoronaphthalen-2-yl)oxy)methyl dimethylcarbamate]	> 289 min

Continued, compound first:

Compound	half-life at 2 μM [1]	Mouse Whole Blood Stability t1/2 [2]	half-life at 2 μM [2]
CCOC(=O)Oc1cc(N2CCc3c(nc(OC[C@@]45CCCN4C[C@H](F)C5)nc3N3CCC[C@]4(C3)NC(=O)NC4=O)C2)c2c(CC)c(F)ccc2c1 [Example 36, 4-(4-((R)-2,4-dioxo-1,3,7-triazaspiro[4.5]decan-7-yl)-2-(((2R,7aS)-2-fluorotetrahydro-1H-pyrrolizin-7a(5H)-yl)methoxy)-5,8-dihydropyrido[3,4-d]pyrimidin-7(6H)-yl)-5-ethyl-6-fluoronaphthalen-2-yl ethyl carbonate]	33 min	–	3 min
CCc1c(F)ccc2cc(OC(=O)N3CCC3)cc(N3CCc4c(nc(OC[C@@]56CCCN5C[C@H](F)C6)nc4N4CCC[C@]5(C4)NC(=O)NC5=O)C3)c12 [Example 37, 4-(4-((R)-2,4-dioxo-1,3,7-triazaspiro[4.5]decan-7-yl)-2-(((2R,7aS)-2-fluorotetrahydro-1H-pyrrolizin-7a(5H)-yl)methoxy)-5,8-dihydropyrido[3,4-d]pyrimidin-7(6H)-yl)-5-ethyl-6-fluoronaphthalen-2-yl azetidine-1-carboxylate]	> 289 min	–	189 min
CCc1c(F)ccc2cc(OC(=O)C3CCCC3)cc(N3CCc4c(nc(OC[C@@]56CCCN5C[C@H](F)C6)nc4N4CCC[C@]5(C4)NC(=O)NC5=O)C3)c12 [Example 42, 4-(4-((R)-2,4-dioxo-1,3,7-triazaspiro[4.5]decan-7-yl)-2-(((2R,7aS)-2-fluorotetrahydro-1H-pyrrolizin-7a(5H)-yl)methoxy)-5,8-dihydropyrido[3,4-d]pyrimidin-7(6H)-yl)-5-ethyl-6-fluoronaphthalen-2-yl cyclopentanecarboxylate]	79 min	1 min	–
CCc1c(F)ccc2cc(OC(=O)N3CCCC3)cc(N3CCc4c(nc(OC[C@@]56CCCN5C[C@H](F)C6)nc4N4CCC[C@]5(C4)NC(=O)NC5=O)C3)c12 [Example 43, 4-(4-((R)-2,4-dioxo-1,3,7-triazaspiro[4.5]decan-7-yl)-2-(((2R,7aS)-2-fluorotetrahydro-1H-pyrrolizin-7a(5H)-yl)methoxy)-5,8-dihydropyrido[3,4-d]pyrimidin-7(6H)-yl)-5-ethyl-6-fluoronaphthalen-2-yl pyrrolidine-1-carboxylate]	> 289 min	–	> 289 min
CCc1c(F)ccc2cc(OC(=O)N(CC)CC)cc(N3CCc4c(nc(OC[C@@]56CCCN5C[C@H](F)C6)nc4N4CCC[C@]5(C4)NC(=O)NC5=O)C3)c12 [Example 45, 4-(4-((R)-2,4-dioxo-1,3,7-triazaspiro[4.5]decan-7-yl)-2-(((2R,7aS)-2-fluorotetrahydro-1H-pyrrolizin-7a(5H)-yl)methoxy)-5,8-dihydropyrido[3,4-d]pyrimidin-7(6H)-yl)-5-ethyl-6-fluoronaphthalen-2-yl diethylcarbamate]	> 289 min	–	> 289 min
CCc1c(F)ccc2cc(OC(=O)C3CCCCC3)cc(N3CCc4c(nc(OC[C@@]56CCCN5C[C@H](F)C6)nc4N4CCC[C@]5(C4)NC(=O)NC5=O)C3)c12 [Example 47, 4-(4-((R)-2,4-dioxo-1,3,7-triazaspiro[4.5]decan-7-yl)-2-(((2R,7aS)-2-fluorotetrahydro-1H-pyrrolizin-7a(5H)-yl)methoxy)-5,8-dihydropyrido[3,4-d]pyrimidin-7(6H)-yl)-5-ethyl-6-fluoronaphthalen-2-yl cyclohexanecarboxylate]	223 min	–	4 min
CCc1c(F)ccc2cc(OC(=O)N3CCCCC3)cc(N3CCc4c(nc(OC[C@@]56CCCN5C[C@H](F)C6)nc4N4CCC[C@]5(C4)NC(=O)NC5=O)C3)c12 [Example 48, 4-(4-((R)-2,4-dioxo-1,3,7-triazaspiro[4.5]decan-7-yl)-2-(((2R,7aS)-2-fluorotetrahydro-1H-pyrrolizin-7a(5H)-yl)methoxy)-5,8-dihydropyrido[3,4-d]pyrimidin-7(6H)-yl)-5-ethyl-6-fluoronaphthalen-2-yl piperidine-1-carboxylate]	> 289 min	–	106 min
CCCCCCCCCC(=O)Oc1cc(N2CCc3c(nc(OC[C@@]45CCCN4C[C@H](F)C5)nc3N3CCC[C@]4(C3)NC(=O)NC4=O)C2)c2c(CC)c(F)ccc2c1 [Example 51, 4-(4-((R)-2,4-dioxo-1,3,7-triazaspiro[4.5]decan-7-yl)-2-(((2R,7aS)-2-fluorotetrahydro-1H-pyrrolizin-7a(5H)-yl)methoxy)-5,8-dihydropyrido[3,4-d]pyrimidin-7(6H)-yl)-5-ethyl-6-fluoronaphthalen-2-yl decanoate]	235 min	–	4 min
CCc1c(F)ccc2cc(OC(=O)N3CCCCCC3)cc(N3CCc4c(nc(OC[C@@]56CCCN5C[C@H](F)C6)nc4N4CCC[C@]5(C4)NC(=O)NC5=O)C3)c12 [Example 53, 4-(4-((R)-2,4-dioxo-1,3,7-triazaspiro[4.5]decan-7-yl)-2-(((2R,7aS)-2-fluorotetrahydro-1H-pyrrolizin-7a(5H)-yl)methoxy)-5,8-dihydropyrido[3,4-d]pyrimidin-7(6H)-yl)-5-ethyl-6-fluoronaphthalen-2-yl azepane-1-carboxylate]	> 289 min	–	> 289 min
CCc1c(F)ccc2cc(OC(=O)N3CCCCCCC3)cc(N3CCc4c(nc(OC[C@@]56CCCN5C[C@H](F)C6)nc4N4CCC[C@]5(C4)NC(=O)NC5=O)C3)c12 [Example 54, 4-(4-((R)-2,4-dioxo-1,3,7-triazaspiro[4.5]decan-7-yl)-2-(((2R,7aS)-2-fluorotetrahydro-1H-pyrrolizin-7a(5H)-yl)methoxy)-5,8-dihydropyrido[3,4-d]pyrimidin-7(6H)-yl)-5-ethyl-6-fluoronaphthalen-2-yl azocane-1-carboxylate]	> 289 min	–	> 289 min
CCc1c(F)ccc2cc(OC(=O)N3CCCC[C@@H]3C)cc(N3CCc4c(nc(OC[C@@]56CCCN5C[C@H](F)C6)nc4N4CCC[C@]5(C4)NC(=O)NC5=O)C3)c12 [Example 55, 4-(4-((R)-2,4-dioxo-1,3,7-triazaspiro[4.5]decan-7-yl)-2-(((2R,7aS)-2-fluorotetrahydro-1H-pyrrolizin-7a(5H)-yl)methoxy)-5,8-dihydropyrido[3,4-d]pyrimidin-7(6H)-yl)-5-ethyl-6-fluoronaphthalen-2-yl(S)-2-methylpiperidine-1-carboxylate]	> 289 min	–	> 289 min
